Measured values published in US12048677B2, “Compositions and uses thereof for the treatment of heart failure in domestic animals” (CEVA SANTE ANIMALE, priority 2014, dated 2024).

Assays:
healthy dogs = assay: PK/PD studies of diuretic effect (urinary volume) after one-day and fourteen-day oral administration; type: in vivo; conditions: for Urinary volume on day 1 / Urinary volume on day 14: healthy dogs
Experimental: Two pharmacokinetics studies (PK/PD) in healthy dogs have been performed to investigate and model the pharmacodynamic effects of torasemide, furosemide and placebo after a one-day and fourteen-day oral administration of furosemide at the following doses: 1 and 4 mg/kg/12 hours, and of torasemide at the following doses: 0.2, 0.25, 0.30 and 0.50 mg/kg/day. • 1 and 4 mg/kg furosemide have been administered to five dogs on the basis of repeated oral administration twice daily for 14 days (corresponding to 2 and 8 mg/kg/day). • 0 (placebo), 0.2, 0.25, 0.30 and 0.50 mg/kg torasemide have been administered to five dogs on the basis of repeated oral administration daily for 14 days.

[1] = tested on: dog model having no clinical signs of heart failure; conditions: 0.2 mg/kg/day torasemide versus 2 mg/kg/day furosemide, seven days; cited from earlier work
[2] = tested on: dogs that had become resistant to furosemide; conditions: torasemide dose ten times lower (1/10) than reference furosemide dose; cited from earlier work
[3] = torasemide 0.20 mg/kg/day oral once daily
[4] = torasemide 0.25 mg/kg/day oral once daily
[5] = torasemide 0.30 mg/kg/day oral once daily
[6] = torasemide 0.5 mg/kg/day oral once daily
[7] = furosemide 2 mg/kg/day (1 mg/kg/12 hours) oral
[8] = furosemide 8 mg/kg/day (4 mg/kg/12 hours) oral

Row | SMILES | Urinary volume compared with test control (placebo) (healthy dogs; 0.20 to 0.50 mg/kg/day of torasemide, day 1 and day 14) [mL] | Urinary volume on day 1 (healthy dogs; [3]) [mL] | Urinary volume on day 14 (healthy dogs; [3]) [mL] | Urinary volume on day 1 (healthy dogs; [4]) [mL] | Urinary volume on day 14 (healthy dogs; [4]) [mL] | Urinary volume on day 1 (healthy dogs; [5]) [mL] | Urinary volume on day 14 (healthy dogs; [5]) [mL] | Urinary volume on day 1 (healthy dogs; [6]) [mL] | Urinary volume on day 14 (healthy dogs; [6]) [mL] | Diuretic potency compared with furosemide [1] | Duration of diuretic effect compared with furosemide [1] | Diuretic potency compared with reference dose of furosemide [2] | Urinary volume on day 1 (healthy dogs; [7]) [mL] | Urinary volume on day 14 (healthy dogs; [7]) [mL] | Urinary volume on day 1 (healthy dogs; [8]) [mL] | Urinary volume on day 14 (healthy dogs; [8]) [mL]
1 | Cc1cccc(Nc2ccncc2S(=O)(=O)NC(=O)NC(C)C)c1 [Torasemide, N-[(isopropylamino)carbonyl]-4-[(3-methylphenyl)amino] pyridine-3-sulfonamide] | > 220 | 455 | 561 | 500 | 696 | 659 | 816 | 700 | 1100 | as potent as furosemide | longer diuretic effect | as potent in producing a diuretic effect |  |  |  | 
2 | NS(=O)(=O)c1cc(C(=O)O)c(NCc2ccco2)cc1Cl [Furosemide, furosemide] |  |  |  |  |  |  |  |  |  |  |  |  | 374 | 532 | 620 | 1033
